According to ChEMBL document CHEMBL5614415, “Recent advances and challenges of revolutionizing drug-resistant tuberculosis treatment” (Eur J Med Chem, 2024):
In brackets after ≈: the same amount, converted by molar mass.

Test system: Mycobacterium tuberculosis
Test: Antimycobacterial activity against extensively drug resistant Mycobacterium tuberculosis assessed as reduction in microbial growth
Type: functional
Conditions: not given

Compound	MIC50
CCCOc1ccc(Cl)c2c1B(O)O[C@@H]2CN	0.16 µg/mL
NC[C@H]1OB(O)c2c(OCCO)ccc(Br)c21	0.08 µg/mL
CCOc1ccc(Br)c2c1B(O)O[C@@H]2CN	0.4 µg/mL
NCC1OB(O)c2c(OCCc3ccccc3)ccc(Cl)c21 (stereo not drawn)	5 µg/mL
COc1ccc(Cl)c2c1B(O)O[C@@H]2CN	0.1 µg/mL
NCC1OB(O)c2c(OCc3ccccc3)ccc(Cl)c21 (stereo not drawn)	5 µg/mL
NC[C@@H]1OB(O)c2c(OCCO)ccc(Br)c21	10 µg/mL
NC[C@@H]1OB(O)c2c(OCCO)ccc(Cl)c21	5 µg/mL
NCC1OB(O)c2c(Oc3ccccc3)ccc(Cl)c21 (stereo not drawn)	5 µg/mL
CCCCOc1ccc(Br)c2c1B(O)O[C@@H]2CN	0.45 µg/mL
CCCOc1ccc(Br)c2c1B(O)O[C@@H]2CN	0.38 µg/mL
Cl.NC[C@H]1OB(O)c2c(OCCO)ccc(Cl)c21	0.023 µg/mL
CCOc1ccc(Cl)c2c1B(O)O[C@@H]2CN	0.3 µg/mL
CCCCOc1ccc(Cl)c2c1B(O)O[C@@H]2CN	0.6 µg/mL
COc1ccc(Br)c2c1B(O)O[C@@H]2CN	0.1 µg/mL

Test system: Mycobacterium tuberculosis
Test: Antibacterial activity against fluoroquinolone-resistant Mycobacterium tuberculosis H37Rv assessed as reduction in bacterial growth measured after 16 to 18 hrs by serial dilution method
Type: functional
Conditions: time 16-18 hrs

Compound	MIC90
COc1c(N2CCNC(C)C2)c(F)cc2c(=O)c(C(=O)O)cn(C3CC3)c12 (stereo not drawn) [GATIFLOXACIN]	0.06 µg/mL (≈ 0.16 µM)

Test system: Mycobacterium tuberculosis
Test: Antitubercular activity against Multi-drug resistant Mycobacterium tuberculosis assessed as inhibition of bacterial growth incubated for 14 days by broth microdilution method
Type: functional
Conditions: 336 h, time 14 day

Compound	MIC50
CC(C)/N=c1\cc2n(-c3ccc(Cl)cc3)c3ccccc3nc-2cc1Nc1ccc(Cl)cc1 [CLOFAZIMINE]	0.12 µg/mL (≈ 0.253 µM)
COc1ncccc1Nc1cc2nc3ccccc3n(-c3ccc(OC(F)(F)F)cc3)c-2c/c1=N\C1CCC(OC)CC1 (stereo not drawn)	0.06 µg/mL (≈ 0.102 µM)
